The values below come from patent EP0308568A1, “Diacyl derivatives of 4-(trialkylbenzyl)-piperazinyl compounds” (CIBA-GEIGY AG, priority 1987, dated 1989).

In brackets after ≈: the same amount, converted by molar mass.

Assay [1] concerns "very low density"-, "low-density"- bzw. "high density"-Lipoproteinen (VLDL, LDL bzw. HDL) im Serum. The assay can be described thus: Lipid-lowering effect in rats: serum lipoproteins after oral dosing (arrangement A: genetically hypercholesterolaemic male rats; arrangement B: normolipaemic rats). In kind it is in vivo, Ratten. Conditions: repeated administration of 30 mg/kg daily. The text has this: Die Diacyl-Verbindungen der vorliegenden Erfindung dagegen weisen, wenn überhaupt, eine nur marginale antibiotische Wirkung auf. Ueberraschenderweise besitzen sie jedoch eine lipidsenkende Wirkung, die in Tierversuchen, vorzugsweise an Säugetieren, z.B. an Ratten, nachgewiesen werden kann. So kann die Senkung von "very low density"-, "low-density"- bzw. "high density"-Lipoproteinen (VLDL, LDL bzw. HDL) im Serum in zwei Testanordnungen, und zwar in genetisch hypercholesterolämischen männlichen Ratten (Anordnung A) und normolipämischen Ratten beiden Geschlechts (Anordnung B) gezeigt werden.
Albino-Ratten mit einem Körpergewicht von 180-240 g, die freien Zugang zu Standard-Rattenfutter und Trinkwasser haben, werden verwendet, und zwar in Anordnung A Sprague Dawley Abkömmlinge des Stammes Tif:RAI und in Anordnung B Tiere des Wistar-Stammes IVa-WI. Die Testverbindung wird in einer Polyethylenglykollösung (mittleres Molekulargewicht von 400) oral an Gruppen von 8 bis 10 Ratten verabreicht, in der Anordnung A einmal täglich um 8 Uhr vormittags während drei aufeinanderfolgenden Tagen und zweimal, um 8 Uhr und 16 Uhr, am vierten Tag, oder im Falle der Anordnung B täglich während 5 aufeinanderfolgenden Tagen. Im Experiment A werden die Tiere 16 Stunden und im Experiment B zwei Stunden nach der letzten Gabe durch Ausblutenlassen vom Hals unter Anästhesie mit Ether getötet. […]

The target of assay [2] is RNA-Polymerase von Escherichia coli (Escherichia coli, UniProt P0A8V2). The assay can be described thus: Inhibition of RNA polymerase (antibiotic effect in vitro). The settings on record: not yet reached at 100 µg/ml; read-out: EC₅₀ für die Inhibition der RNA-Polymerase. In kind it is biochemical. The text has this:
(§1) Die Ermittlung der antibiotischen Wirkung erfolgt z.B. einerseits in vitro durch die Bestimmung der mittleren effektiven Konzentration EC₅₀ für die Hemmung der RNA-Polymerase von Escherichia coli, sowie der minimalen Hemmkonzentration MIC ("minimum inhibitory concentration") im konventionellen Plattentest, andererseits in vivo an infizierten Mäusen und Ratten durch die Bestimmung von ED₅₀ (effektive Dosis, die für 50 % der Versuchstiere lebenserhaltend ist). Als Mikroorganismen werden für den vorliegenden Zweck insbesondere Mycobacterium tuberculosis TB H₃₇Rv und Staphylococcus aureus verwendet. Bei Verbindungen mit lipidsenkender Indikation wird eine antibiotische Wirksamkeit als nachteilig erachtet, da sie, insbesondere bei langfristiger Verabreichung, zur Bildung von gegen Antibiotika resistenten Stämmen von Mikroorganismen führen kann.

The subject of assay [3] is Staphylococcus aureus. Description: Minimum inhibitory concentration, conventional plate test. In kind it is cell-based. Conditions: various pathogenic strains of Staphylococcus aureus.
Source text: as §1

For assay [4], the system named is Staphylococcus aureus. The assay can be described thus: Antibiotic effect in vivo in infected mice. The settings on record: mice infected with Staphylococcus aureus, single dose of 200 mg/kg. Set-up: species or system Mäuse.
Source text: as §1

Sequence of RNA-Polymerase von Escherichia coli (P0A800 whole entry): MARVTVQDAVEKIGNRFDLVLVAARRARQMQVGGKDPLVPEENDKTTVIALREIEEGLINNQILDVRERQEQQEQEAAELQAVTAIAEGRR
Sequence of RNA-Polymerase von Escherichia coli (P0A8T7 whole entry, further chain): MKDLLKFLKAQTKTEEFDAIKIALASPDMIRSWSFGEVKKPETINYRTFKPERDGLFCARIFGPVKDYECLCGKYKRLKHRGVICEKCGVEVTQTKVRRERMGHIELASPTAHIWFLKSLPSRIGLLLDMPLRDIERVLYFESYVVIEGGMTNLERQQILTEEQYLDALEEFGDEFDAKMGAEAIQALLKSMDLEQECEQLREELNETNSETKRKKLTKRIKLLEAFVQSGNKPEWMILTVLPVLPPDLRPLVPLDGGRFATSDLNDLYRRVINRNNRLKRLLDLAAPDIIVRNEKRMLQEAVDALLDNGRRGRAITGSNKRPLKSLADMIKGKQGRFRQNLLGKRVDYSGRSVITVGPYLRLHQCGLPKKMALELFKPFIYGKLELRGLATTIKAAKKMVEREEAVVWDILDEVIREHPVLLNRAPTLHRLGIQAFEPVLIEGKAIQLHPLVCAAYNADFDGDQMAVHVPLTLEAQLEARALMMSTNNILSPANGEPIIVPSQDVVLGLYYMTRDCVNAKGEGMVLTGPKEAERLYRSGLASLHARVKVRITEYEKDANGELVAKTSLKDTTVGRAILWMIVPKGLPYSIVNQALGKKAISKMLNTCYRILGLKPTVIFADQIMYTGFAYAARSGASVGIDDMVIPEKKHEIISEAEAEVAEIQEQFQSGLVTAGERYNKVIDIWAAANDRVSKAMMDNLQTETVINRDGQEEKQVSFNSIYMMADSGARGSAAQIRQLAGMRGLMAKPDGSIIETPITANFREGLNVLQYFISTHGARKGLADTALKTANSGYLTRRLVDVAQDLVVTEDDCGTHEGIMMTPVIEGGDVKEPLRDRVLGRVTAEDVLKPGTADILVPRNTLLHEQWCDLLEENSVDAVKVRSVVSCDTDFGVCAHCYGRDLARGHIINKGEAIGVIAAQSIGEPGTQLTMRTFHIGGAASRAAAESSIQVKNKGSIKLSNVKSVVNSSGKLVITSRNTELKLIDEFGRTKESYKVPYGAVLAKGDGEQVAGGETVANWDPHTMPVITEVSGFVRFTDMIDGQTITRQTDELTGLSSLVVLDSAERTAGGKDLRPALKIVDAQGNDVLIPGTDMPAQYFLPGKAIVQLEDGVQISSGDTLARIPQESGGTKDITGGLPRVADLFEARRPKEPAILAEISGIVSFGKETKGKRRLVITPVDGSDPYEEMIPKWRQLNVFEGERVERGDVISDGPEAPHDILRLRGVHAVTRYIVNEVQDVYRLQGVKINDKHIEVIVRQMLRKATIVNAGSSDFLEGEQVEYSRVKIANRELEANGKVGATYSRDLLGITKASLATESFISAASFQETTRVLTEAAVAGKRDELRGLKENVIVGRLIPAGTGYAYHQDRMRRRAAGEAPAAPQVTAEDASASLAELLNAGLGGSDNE
Sequence of RNA-Polymerase von Escherichia coli (P0A8V2 whole entry): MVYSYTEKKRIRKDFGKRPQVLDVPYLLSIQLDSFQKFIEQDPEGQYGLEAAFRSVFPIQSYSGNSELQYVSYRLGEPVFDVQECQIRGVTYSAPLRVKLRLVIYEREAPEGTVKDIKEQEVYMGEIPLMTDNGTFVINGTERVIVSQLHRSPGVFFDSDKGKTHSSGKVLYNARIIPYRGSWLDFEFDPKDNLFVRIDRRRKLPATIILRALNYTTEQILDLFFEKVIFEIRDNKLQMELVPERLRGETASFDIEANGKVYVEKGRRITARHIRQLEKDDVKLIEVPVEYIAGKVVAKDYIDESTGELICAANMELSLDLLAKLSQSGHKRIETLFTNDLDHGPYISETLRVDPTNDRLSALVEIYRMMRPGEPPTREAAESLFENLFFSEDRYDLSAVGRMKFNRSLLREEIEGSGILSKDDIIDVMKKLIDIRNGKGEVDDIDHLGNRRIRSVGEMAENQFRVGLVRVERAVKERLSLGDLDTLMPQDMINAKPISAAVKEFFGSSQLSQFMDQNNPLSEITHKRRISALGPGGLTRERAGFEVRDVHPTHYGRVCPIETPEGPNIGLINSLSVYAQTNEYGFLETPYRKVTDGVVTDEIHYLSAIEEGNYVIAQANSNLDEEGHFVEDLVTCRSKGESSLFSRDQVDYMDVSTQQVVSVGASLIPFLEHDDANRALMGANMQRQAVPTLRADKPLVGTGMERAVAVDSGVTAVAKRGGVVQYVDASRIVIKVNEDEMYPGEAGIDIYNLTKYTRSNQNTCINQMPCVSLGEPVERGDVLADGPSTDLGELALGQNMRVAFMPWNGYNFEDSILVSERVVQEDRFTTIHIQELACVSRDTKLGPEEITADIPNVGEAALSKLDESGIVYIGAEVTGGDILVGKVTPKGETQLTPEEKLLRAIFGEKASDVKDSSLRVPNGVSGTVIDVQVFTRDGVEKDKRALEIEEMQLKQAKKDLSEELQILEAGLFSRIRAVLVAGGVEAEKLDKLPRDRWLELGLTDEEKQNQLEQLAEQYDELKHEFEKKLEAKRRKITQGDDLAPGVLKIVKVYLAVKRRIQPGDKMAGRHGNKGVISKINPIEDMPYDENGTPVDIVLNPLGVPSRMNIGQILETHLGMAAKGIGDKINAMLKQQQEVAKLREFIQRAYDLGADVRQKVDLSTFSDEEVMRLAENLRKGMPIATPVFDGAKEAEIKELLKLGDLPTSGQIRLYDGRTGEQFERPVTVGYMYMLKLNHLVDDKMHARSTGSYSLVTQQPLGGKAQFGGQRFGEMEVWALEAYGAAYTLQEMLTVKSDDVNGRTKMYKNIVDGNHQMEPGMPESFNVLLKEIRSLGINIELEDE
Sequence of RNA-Polymerase von Escherichia coli (P0A7Z4 whole entry, further chain): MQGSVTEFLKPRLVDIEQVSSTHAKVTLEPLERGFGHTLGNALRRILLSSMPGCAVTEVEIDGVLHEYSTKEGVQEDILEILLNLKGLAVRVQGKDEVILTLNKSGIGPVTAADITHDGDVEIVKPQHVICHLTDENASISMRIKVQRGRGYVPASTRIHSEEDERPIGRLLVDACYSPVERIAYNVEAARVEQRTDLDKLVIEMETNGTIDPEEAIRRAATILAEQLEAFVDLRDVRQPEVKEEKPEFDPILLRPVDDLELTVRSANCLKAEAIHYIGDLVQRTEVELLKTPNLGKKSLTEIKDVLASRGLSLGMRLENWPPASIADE

For the compound `COC1C=COC2(C)Oc3c(C)c(OC(=O)C(C)(C)C)c4c(c3C2=O)C(=O)C(N2CCN(Cc3c(C)cc(C)cc3C)CC2)=C(C4=O)N(C(=O)C(C)(C)C)C(=O)C(C)=CC=CC(C)C(O)C(C)C(O)C(C)C(OC(C)=O)C1C` (stereo not shown) [8-O,N-Dipivaloyl-3-[4-(2,4,6-trimethylbenzyl)-1-piperazinyl]-rifamycin S], the “Senkung der "LDL-Fraktion"” value in assay [1] is reported as 50-70%. The EC50 in assay [2] is more than 92.6 µM. The minimal inhibitory concentration (MIC) against Staphylococcus aureus [3] was approximately 64 µg/mL (≈ 59.2 µM). The “antibiotische Wirksamkeit in vivo” value in the assay with Staphylococcus aureus [4] is reported as “antibiotisch unwirksam”.
